Activity calls are given as the source filed them.
Tests used:
[1] = target: T1, Exodeoxyribonuclease V (Escherichia coli (strain K12), UniProt P04993+P07648+P08394); test: E. coli RecBCD inhibitors, dose response, counter-screen for AddAB inhibitor project, absorbance, V66 E. coli, mutant T4 phage (AID 492957); type: functional, cell-based, Escherichia coli str. K-12 substr. MG1655
T1 sequence (P04993 whole entry): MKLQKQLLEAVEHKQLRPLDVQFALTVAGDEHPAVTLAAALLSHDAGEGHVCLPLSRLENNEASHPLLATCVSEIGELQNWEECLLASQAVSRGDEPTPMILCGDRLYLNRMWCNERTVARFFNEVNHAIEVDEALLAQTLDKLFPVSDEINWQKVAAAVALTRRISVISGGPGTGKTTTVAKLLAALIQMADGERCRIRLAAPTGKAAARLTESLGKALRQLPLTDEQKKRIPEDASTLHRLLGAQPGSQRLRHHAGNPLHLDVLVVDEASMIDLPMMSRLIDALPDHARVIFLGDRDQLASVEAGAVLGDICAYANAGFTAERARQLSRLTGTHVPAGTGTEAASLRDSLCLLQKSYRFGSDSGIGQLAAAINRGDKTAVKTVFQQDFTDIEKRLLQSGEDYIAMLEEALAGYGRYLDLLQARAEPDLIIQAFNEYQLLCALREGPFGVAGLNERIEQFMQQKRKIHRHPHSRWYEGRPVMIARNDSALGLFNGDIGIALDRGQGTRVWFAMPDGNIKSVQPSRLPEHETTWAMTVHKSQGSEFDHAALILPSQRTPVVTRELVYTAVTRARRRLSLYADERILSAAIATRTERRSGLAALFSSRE
T1 sequence (P07648 whole entry): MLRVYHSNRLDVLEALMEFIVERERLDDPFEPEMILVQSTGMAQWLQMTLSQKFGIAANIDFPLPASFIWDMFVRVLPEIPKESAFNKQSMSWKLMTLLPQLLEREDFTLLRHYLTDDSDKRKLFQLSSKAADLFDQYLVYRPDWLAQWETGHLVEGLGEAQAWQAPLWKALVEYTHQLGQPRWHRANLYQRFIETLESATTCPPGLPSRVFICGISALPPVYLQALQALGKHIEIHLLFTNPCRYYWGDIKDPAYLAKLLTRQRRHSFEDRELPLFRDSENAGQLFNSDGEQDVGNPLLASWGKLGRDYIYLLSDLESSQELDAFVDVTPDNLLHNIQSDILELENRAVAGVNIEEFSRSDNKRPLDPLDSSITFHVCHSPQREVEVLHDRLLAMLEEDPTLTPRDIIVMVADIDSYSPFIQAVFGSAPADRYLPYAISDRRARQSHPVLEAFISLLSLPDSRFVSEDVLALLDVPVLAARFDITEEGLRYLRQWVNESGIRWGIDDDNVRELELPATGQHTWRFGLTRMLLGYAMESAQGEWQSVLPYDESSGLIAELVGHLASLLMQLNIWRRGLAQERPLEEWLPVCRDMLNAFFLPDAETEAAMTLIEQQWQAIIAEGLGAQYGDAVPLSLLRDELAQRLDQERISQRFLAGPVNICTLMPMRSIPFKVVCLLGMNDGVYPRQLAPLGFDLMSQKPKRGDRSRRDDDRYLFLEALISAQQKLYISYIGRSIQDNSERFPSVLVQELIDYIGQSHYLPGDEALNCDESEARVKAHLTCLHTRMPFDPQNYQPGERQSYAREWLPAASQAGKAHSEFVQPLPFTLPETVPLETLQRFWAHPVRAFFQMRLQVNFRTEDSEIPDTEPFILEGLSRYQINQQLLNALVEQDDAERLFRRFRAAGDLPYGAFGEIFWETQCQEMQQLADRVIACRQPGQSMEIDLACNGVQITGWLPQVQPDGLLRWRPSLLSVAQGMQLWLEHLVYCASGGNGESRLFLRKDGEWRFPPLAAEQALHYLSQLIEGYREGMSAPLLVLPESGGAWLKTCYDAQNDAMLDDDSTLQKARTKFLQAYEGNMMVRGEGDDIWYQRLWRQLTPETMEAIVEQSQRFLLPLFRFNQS
T1 sequence (P08394 whole entry): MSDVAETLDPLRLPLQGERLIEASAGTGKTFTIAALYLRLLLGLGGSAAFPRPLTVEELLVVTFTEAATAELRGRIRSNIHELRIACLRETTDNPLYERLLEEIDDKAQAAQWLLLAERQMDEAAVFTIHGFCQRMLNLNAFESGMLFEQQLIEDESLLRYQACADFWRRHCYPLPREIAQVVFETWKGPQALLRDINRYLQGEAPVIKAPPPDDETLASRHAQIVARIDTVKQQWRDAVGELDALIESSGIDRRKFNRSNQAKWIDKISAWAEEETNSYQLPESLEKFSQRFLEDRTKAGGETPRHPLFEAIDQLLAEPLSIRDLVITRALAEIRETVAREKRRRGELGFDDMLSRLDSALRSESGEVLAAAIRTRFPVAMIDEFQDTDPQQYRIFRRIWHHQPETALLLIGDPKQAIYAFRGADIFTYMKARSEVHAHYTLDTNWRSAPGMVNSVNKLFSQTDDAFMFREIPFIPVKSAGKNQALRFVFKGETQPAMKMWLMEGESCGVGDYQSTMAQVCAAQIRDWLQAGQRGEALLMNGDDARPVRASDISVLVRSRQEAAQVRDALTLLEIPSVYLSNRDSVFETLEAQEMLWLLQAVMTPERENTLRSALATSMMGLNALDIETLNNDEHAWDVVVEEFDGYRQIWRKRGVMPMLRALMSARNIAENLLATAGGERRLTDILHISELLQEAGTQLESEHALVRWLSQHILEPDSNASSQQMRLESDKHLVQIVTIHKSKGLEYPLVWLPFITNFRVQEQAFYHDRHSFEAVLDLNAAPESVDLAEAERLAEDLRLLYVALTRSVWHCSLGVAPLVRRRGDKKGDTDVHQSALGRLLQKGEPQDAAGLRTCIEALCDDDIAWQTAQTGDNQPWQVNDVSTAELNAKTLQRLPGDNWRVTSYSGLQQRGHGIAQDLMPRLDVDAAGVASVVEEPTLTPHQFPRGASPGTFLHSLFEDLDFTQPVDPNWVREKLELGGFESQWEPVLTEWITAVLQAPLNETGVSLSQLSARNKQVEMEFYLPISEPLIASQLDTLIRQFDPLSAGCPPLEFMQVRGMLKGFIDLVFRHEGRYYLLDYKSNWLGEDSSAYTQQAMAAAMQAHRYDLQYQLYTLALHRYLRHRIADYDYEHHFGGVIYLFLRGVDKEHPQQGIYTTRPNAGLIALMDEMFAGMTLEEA

[2] = target: Insulin-like growth factor 1 receptor (Homo sapiens, UniProt P08069); test: Navigating the Kinome. Panel member name: IGF1R; type: functional
Insulin-like growth factor 1 receptor, sequence (P08069 31-736 limits assumed): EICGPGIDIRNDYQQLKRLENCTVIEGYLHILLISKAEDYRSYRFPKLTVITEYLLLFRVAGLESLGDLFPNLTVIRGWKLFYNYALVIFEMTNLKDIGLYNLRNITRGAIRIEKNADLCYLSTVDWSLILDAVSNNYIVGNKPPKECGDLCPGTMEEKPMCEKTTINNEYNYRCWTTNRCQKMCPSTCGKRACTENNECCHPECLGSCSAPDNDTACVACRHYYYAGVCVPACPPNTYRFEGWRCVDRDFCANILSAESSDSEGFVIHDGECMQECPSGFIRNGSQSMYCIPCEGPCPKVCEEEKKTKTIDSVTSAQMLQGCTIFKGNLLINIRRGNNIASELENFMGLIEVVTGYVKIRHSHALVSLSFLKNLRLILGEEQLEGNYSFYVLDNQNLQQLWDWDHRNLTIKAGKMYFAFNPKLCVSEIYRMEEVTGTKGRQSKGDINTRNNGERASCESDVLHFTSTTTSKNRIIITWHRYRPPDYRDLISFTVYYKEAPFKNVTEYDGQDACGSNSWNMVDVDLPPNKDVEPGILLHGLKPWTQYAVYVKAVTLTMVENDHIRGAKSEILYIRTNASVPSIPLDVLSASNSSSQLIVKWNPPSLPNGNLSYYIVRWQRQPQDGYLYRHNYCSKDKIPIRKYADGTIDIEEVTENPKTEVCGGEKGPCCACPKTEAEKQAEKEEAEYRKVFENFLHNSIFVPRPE
Insulin-like growth factor 1 receptor, sequence (P08069 741-1367 limits assumed): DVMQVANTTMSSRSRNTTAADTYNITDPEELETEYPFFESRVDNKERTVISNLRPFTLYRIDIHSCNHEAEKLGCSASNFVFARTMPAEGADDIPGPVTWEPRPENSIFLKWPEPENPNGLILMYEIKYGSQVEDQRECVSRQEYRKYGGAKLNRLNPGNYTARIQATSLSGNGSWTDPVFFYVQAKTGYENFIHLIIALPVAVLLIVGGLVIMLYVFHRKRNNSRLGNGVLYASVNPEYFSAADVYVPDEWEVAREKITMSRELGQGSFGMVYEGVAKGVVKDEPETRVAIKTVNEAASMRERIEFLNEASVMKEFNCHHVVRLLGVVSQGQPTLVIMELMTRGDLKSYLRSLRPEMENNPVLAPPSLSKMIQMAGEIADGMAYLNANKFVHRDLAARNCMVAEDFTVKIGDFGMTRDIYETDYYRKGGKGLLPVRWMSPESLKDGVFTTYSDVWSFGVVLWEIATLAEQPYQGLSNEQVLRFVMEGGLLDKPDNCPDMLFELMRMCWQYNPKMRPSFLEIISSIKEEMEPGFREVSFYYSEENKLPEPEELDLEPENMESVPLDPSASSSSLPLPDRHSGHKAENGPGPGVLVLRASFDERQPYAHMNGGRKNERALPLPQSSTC

[3] = target: Serine/threonine-protein kinase TAO1 (Homo sapiens, UniProt Q7L7X3); type: functional
Serine/threonine-protein kinase TAO1, sequence (Q7L7X3 whole entry): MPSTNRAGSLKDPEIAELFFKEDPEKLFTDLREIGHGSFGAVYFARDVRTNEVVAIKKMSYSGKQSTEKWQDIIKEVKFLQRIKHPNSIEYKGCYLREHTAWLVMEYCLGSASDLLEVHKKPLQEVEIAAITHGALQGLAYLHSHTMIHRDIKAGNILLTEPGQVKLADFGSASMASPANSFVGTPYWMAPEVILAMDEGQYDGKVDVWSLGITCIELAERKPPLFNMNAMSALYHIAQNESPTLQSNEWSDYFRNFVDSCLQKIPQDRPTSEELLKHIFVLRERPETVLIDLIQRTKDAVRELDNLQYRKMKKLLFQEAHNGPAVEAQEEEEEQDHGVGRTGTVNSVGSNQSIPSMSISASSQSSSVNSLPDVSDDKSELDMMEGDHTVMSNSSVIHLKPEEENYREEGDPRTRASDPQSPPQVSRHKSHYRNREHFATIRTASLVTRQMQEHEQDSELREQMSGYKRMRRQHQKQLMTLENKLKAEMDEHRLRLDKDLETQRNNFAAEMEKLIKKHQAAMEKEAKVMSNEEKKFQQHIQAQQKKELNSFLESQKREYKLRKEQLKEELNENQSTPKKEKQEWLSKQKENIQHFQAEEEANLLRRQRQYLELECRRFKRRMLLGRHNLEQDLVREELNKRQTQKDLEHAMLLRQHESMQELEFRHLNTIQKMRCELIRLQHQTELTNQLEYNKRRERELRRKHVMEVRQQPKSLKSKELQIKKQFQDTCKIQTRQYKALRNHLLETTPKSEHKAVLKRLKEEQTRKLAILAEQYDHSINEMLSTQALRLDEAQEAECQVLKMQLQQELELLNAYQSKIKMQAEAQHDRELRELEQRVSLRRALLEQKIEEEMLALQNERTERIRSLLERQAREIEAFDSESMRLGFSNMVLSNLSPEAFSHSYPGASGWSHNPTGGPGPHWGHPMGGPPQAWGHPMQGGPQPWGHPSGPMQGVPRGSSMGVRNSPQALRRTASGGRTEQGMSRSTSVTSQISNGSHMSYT

[4] = target: 5'-AMP-activated protein kinase catalytic subunit alpha-1 (Homo sapiens, UniProt Q13131); type: functional
5'-AMP-activated protein kinase catalytic subunit alpha-1, sequence (Q13131 whole entry): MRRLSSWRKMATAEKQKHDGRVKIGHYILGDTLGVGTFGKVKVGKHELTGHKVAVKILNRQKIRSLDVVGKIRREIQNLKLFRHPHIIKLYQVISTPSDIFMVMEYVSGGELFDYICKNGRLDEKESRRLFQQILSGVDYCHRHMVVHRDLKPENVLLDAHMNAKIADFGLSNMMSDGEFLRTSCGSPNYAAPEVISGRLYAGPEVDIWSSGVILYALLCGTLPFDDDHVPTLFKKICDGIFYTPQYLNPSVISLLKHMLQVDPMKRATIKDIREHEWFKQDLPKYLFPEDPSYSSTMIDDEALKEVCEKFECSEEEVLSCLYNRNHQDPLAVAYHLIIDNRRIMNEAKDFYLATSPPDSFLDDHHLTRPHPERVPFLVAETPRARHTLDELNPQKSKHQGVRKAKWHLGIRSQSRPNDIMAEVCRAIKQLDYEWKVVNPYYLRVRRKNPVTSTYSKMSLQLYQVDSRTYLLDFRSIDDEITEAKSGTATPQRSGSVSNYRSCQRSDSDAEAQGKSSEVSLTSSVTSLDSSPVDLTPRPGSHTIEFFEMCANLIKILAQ

[5] = target: Tyrosine-protein kinase JAK3 (Homo sapiens, UniProt P52333); type: functional
Tyrosine-protein kinase JAK3, sequence (P52333 whole entry): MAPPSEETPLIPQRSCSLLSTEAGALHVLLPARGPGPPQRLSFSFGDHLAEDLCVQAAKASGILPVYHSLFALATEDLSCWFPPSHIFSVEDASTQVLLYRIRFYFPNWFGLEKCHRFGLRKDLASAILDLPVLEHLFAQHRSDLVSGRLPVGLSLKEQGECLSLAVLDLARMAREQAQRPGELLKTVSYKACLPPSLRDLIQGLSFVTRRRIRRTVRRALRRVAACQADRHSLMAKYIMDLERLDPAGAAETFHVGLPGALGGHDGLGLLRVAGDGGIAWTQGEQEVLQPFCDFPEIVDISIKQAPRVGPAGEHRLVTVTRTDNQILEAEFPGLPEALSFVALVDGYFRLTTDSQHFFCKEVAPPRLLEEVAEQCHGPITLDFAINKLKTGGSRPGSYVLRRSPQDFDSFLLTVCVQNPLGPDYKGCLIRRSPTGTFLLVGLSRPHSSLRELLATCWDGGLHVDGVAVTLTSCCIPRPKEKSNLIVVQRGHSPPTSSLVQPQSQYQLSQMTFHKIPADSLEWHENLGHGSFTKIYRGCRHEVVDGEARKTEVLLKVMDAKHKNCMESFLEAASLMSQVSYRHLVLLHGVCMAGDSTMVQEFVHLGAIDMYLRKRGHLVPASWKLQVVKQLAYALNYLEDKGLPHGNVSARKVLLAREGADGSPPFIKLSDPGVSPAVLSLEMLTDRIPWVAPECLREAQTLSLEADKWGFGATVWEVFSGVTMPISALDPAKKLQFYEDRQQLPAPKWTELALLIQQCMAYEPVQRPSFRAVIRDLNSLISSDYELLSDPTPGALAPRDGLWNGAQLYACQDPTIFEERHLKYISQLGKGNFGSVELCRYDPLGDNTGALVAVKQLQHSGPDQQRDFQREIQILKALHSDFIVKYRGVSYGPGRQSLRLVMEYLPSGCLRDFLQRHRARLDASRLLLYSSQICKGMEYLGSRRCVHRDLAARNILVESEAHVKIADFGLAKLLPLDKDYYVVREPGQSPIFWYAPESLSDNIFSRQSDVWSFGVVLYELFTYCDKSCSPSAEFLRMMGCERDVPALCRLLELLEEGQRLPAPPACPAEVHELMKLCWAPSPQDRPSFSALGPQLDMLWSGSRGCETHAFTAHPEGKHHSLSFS

Ki [2]	Ki [3]	Ki [4]	Ki [5]	Structure (SMILES)	IC50 [1]
–	–	–	–	CCCC(=O)NC(c1ccc(N(C)C)cc1)c1ccc2cccnc2c1O (stereo not given)	> 119000 nM (inactive)
> 2510 nM (inactive)	1000 nM (active)	200 nM (active)	1260 nM (active)	O=C1NC(=O)C(c2c[nH]c3ccccc23)=C1c1nc(N2CCNCC2)nc2ccccc12	–
